One assay deals with T1, P450RAI-1 (Homo sapiens, UniProt O43174).
T1 construct: expressed in transfected cells; host or cells: HeLa
T1 sequence (O43174 1-497): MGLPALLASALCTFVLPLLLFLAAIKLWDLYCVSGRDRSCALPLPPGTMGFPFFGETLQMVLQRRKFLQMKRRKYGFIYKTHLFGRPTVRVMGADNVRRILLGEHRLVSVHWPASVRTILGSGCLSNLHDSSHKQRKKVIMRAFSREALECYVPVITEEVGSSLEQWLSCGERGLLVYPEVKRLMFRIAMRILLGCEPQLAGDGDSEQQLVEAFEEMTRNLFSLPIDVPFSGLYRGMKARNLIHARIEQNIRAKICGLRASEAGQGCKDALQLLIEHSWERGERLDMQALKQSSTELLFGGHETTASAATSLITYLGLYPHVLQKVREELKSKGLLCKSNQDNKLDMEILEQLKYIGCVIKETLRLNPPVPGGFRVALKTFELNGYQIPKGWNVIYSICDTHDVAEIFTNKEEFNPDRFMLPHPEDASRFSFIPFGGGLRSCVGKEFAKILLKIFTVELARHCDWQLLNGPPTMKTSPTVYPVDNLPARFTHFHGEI
The assay is described as follows: P450RAI-1 cell-based inhibitor assay (inhibition of all-trans-RA metabolism). The following applies: P450RAI-1 stably transfected HeLa cells, [3H]-RA, 3 hours at 37° C.; read-out: P450RAI-1 Whole cell IC50. How it is done:
(§1) P450RAI-1 and P450RAI-2 Cell-Based Inhibitor Assay:
(§2) P450RAI-1 stably transfected HeLa cells, or P450RAI-2 stably transfected HeLa cells, as applicable, are maintained in […] tissue culture dishes in Modified Eagle's Medium (MEM) containing 10% Fetal Bovine Serum (FBS) and 100 μg/ml hygromycin. Exponentially growing cells are harvested by incubating in trypsin. Cells are then washed with 1× Phosphate Buffered Saline (PBS) and plated in a 48-well plate at 5×10^5 cells in 0.2 ml MEM medium containing 10% FBS and 0.05 μCi [^3H]—RA in the presence or absence of increasing concentrations of the test compounds. The compounds are diluted in 100% DMSO and then added in triplicate wells at either 10, 1 or 0.1 μM final concentration. As a positive control for RA metabolism inhibition, cells are also incubated with ketoconazole at 100, 10 and 1 μM. Cells are incubated for 3 hours at 37° C. The retinoids are then extracted using the procedure of Bligh et al. (1959) Canadian Journal of Biochemistry 37, 911-917, modified by using methylenechloride instead of chloroform. The publication Bligh et al. (1959) Canadian Journal of Biochemistry 37, 911-917 is specifically incorporated herein by reference. The water soluble radioactivity is quantified using a β-scintillation counter. […]

Another assay has as its target T2, RAR α (Homo sapiens, UniProt P10276).
T2 sequence (P10276 1-462): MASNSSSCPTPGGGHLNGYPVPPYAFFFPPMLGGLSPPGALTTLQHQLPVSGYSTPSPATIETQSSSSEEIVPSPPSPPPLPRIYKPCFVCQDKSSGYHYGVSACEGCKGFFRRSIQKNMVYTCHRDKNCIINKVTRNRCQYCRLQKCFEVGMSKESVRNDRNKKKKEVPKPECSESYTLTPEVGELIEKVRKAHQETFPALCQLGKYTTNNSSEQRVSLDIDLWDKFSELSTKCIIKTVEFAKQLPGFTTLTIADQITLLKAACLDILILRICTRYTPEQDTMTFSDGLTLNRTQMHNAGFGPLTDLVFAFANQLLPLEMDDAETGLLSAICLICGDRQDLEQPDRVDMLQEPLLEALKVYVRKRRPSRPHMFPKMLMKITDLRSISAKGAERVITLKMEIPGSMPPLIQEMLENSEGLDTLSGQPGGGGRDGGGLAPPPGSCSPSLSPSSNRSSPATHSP
Kind of assay: RARα binding Kd (Table 1). The following applies: last item of cell.

For assay [1], the target named is T3, RAR γ (Homo sapiens, UniProt P13631).
T3 sequence (P13631 1-454): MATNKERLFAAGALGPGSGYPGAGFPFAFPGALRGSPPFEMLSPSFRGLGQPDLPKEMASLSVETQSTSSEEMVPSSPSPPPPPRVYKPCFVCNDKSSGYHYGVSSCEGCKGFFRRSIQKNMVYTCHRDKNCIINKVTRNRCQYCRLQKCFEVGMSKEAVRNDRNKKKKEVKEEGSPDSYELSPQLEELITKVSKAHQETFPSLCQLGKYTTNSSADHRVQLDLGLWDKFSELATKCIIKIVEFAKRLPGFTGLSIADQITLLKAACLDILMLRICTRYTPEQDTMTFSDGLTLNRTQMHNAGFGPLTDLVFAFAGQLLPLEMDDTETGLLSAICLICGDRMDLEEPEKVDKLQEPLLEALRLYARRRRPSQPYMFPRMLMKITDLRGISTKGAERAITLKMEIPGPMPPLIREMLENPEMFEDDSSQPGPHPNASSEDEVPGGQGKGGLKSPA
The assay is described as follows: RARγ binding Kd (Table 1). The following applies: last item of cell.

The target of another assay is T4, RAR β (Homo sapiens, UniProt P10826).
T4 sequence (P10826 1-455): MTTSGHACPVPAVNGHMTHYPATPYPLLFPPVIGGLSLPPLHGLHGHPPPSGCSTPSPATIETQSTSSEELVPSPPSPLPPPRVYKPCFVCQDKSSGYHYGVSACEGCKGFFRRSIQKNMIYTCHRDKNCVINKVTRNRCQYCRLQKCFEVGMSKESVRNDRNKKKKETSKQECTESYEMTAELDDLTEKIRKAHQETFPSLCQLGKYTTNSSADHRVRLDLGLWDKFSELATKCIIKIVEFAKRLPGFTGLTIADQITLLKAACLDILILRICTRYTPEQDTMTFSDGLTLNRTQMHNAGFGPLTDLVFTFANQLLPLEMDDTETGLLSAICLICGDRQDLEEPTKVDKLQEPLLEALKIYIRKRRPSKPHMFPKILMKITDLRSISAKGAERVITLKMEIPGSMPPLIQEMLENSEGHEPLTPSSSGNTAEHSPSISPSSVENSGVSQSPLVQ
Kind of assay: RARβ binding Kd (Table 1). Conditions: last item of cell.

Assay [2] deals with T3, RAR γ. The assay is described as follows: RARγ EC50/efficacy (Table 1). The class given is cell-based. The following applies: value in parentheses.
Another assay concerns the target T5, P450RAI-2 (Homo sapiens, UniProt Q9NR63).
T5 construct: expressed in transfected cells; host or cells: HeLa
T5 sequence (Q9NR63 1-512): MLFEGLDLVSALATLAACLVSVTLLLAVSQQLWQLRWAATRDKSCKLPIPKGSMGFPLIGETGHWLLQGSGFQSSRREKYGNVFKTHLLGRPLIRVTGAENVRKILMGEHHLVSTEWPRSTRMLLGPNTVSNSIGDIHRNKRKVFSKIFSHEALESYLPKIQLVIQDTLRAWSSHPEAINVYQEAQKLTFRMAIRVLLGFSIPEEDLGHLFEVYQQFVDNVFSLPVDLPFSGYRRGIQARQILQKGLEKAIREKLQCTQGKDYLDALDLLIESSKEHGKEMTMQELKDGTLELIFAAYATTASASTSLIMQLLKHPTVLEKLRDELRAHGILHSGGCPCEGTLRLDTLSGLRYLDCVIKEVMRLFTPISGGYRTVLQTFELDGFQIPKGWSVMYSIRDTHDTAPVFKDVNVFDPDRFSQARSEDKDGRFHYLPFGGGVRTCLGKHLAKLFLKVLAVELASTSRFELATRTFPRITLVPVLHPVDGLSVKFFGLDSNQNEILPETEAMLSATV
The assay is described as follows: P450RAI-2 cell-based inhibitor assay (inhibition of all-trans-RA metabolism). Conditions: P450RAI-2 stably transfected HeLa cells, [3H]-RA, 3 hours at 37° C.; read-out: P450RAI-2 Whole cell IC50. The method, then:
as §1, §2

With `CC(C)c1cc(C(=O)Oc2ccc(/C=C/C(=O)O)cc2)cc2c1OC(C)(C)CC2(C)C` [Compound 16, 8-Isopropyl-2,2,4,4-tetramethyl-chroman-6-carboxylic acid 4-(2-carboxy-vinyl)-phenyl ester], the IC50 at P450RAI-1 came to 1.3 µM.
As for `CN(C1CC1)C1CCC(C)(C)c2cc(C#Cc3ccc(/C=C/C(=O)O)cc3)cc(C3CC3)c21` (stereo not drawn) [Compound 48, 3-{4-[4-Cyclopropyl-5-(cyclopropyl-methyl-amino)-8,8-dimethyl-5,6,7,8-tetrahydro-naphthalen-2-ylethynyl]-phenyl}-acrylic acid], the Kd at RAR α, at RAR γ [1] and on RAR β was more than 10 µM each time.
Turning to `C=Cc1c(C)c(C#Cc2ccc(CC(=O)O)cc2)cc(C(C)(C)C)c1OC(C)C` [Compound 46, [4-(5-tert-Butyl-4-isopropoxy-2-methyl-3-vinyl-phenylethynyl)-phenyl]-acetic acid], the “RAR γ (EFFICACY)” value at RAR γ [2] was 68.
As to `CC(C(=O)O)c1ccc(C#Cc2cc(C3CC3)c3c(c2)C(C)(C)CCC3N(C)C2CC2)cc1` (stereo not drawn) [Compound 49, 2-{4-[4-Cyclopropyl-5-(cyclopropyl-methyl-amino)-8,8-dimethyl-5,6,7,8-tetrahydro-naphthalen-2-ylethynyl]-phenyl}-propionic acid], the IC50 on P450RAI-2 is more than 10 µM.

The values above are taken from patent US7638648B2, “Compounds having selective cytochrome P450RAI-1 or selective cytochrome P450RAI-2 inhibitory activity and methods of obtaining the same” (Allergan Inc., priority 2003, dated 2009).
